Active and inactive are the calls of the source. How the calls were made is not given here.
System: rodent lifetime carcinogenesis bioassay, tumor incidence TD50
Assay: chronic cancer bioassays in animals – CPDB, compiled studies (AID 1745844)

CCc1cccc2c3c([nH]c12)C(CC)(CC(=O)O)OCC3 (stereo not drawn)
inactive: carcinogen call (mouse, strain Charles River CD1, females, in feed, site: any site (literature study), lesion: benign tumor, dosed 78 weeks, study length 78 weeks) negative | TD50 (mouse, strain Charles River CD1, females, in feed, site: any site (literature study), lesion: malignant tumor, dosed 78 weeks, study length 78 weeks) 336 mg/kg/day | carcinogen call (mouse, strain Charles River CD1, females, in feed, site: any site (literature study), lesion: several types, types named in the paper, dosed 78 weeks, study length 78 weeks) negative | carcinogen call (mouse, strain Charles River CD1, females, in feed, site: liver, lesion: hepatocellular adenoma, dosed 78 weeks, study length 78 weeks) negative | carcinogen call (mouse, strain Charles River CD1, females, in feed, site: lung, lesion: alveolar/bronchiolar carcinoma, dosed 78 weeks, study length 78 weeks) negative | carcinogen call (mouse, strain Charles River CD1, males, in feed, site: any site (literature study), lesion: benign tumor, dosed 78 weeks, study length 78 weeks) negative | carcinogen call (mouse, strain Charles River CD1, males, in feed, site: any site (literature study), lesion: malignant tumor, dosed 78 weeks, study length 78 weeks) negative | carcinogen call (mouse, strain Charles River CD1, males, in feed, site: any site (literature study), lesion: several types, types named in the paper, dosed 78 weeks, study length 78 weeks) negative | carcinogen call (mouse, strain Charles River CD1, males, in feed, site: liver, lesion: hepatocellular adenoma, dosed 78 weeks, study length 78 weeks) negative | carcinogen call (mouse, strain Charles River CD1, males, in feed, site: liver, lesion: hepatocellular carcinoma, dosed 78 weeks, study length 78 weeks) negative | carcinogen call (rat, strain Charles River CD (Sprague-Dawley), females, in feed, site: any site (literature study), lesion: benign tumor, dosed 104 weeks, study length 104 weeks) negative | carcinogen call (rat, strain Charles River CD (Sprague-Dawley), females, in feed, site: any site (literature study), lesion: malignant tumor, dosed 104 weeks, study length 104 weeks) negative | carcinogen call (rat, strain Charles River CD (Sprague-Dawley), females, in feed, site: any site (literature study), lesion: several types, types named in the paper, dosed 104 weeks, study length 104 weeks) negative | carcinogen call (rat, strain Charles River CD (Sprague-Dawley), females, in feed, site: liver, lesion: hepatocellular carcinoma, dosed 104 weeks, study length 104 weeks) negative | TD50 (rat, strain Charles River CD (Sprague-Dawley), females, in feed, site: liver, lesion: neoplastic nodule, dosed 104 weeks, study length 104 weeks) 1010 mg/kg/day | carcinogen call (rat, strain Charles River CD (Sprague-Dawley), males, in feed, site: any site (literature study), lesion: benign tumor, dosed 104 weeks, study length 104 weeks) negative | carcinogen call (rat, strain Charles River CD (Sprague-Dawley), males, in feed, site: any site (literature study), lesion: malignant tumor, dosed 104 weeks, study length 104 weeks) negative | carcinogen call (rat, strain Charles River CD (Sprague-Dawley), males, in feed, site: any site (literature study), lesion: several types, types named in the paper, dosed 104 weeks, study length 104 weeks) negative | carcinogen call (rat, strain Charles River CD (Sprague-Dawley), males, in feed, site: liver, lesion: hepatocellular carcinoma, dosed 104 weeks, study length 104 weeks) negative | TD50 (rat, strain Charles River CD (Sprague-Dawley), males, in feed, site: liver, lesion: neoplastic nodule, dosed 104 weeks, study length 104 weeks) 1400 mg/kg/day

CCCCCN(N=O)C(=N)N[N+](=O)[O-]
inactive: carcinogen call (rat, strain Wistar, males, in drinking water, site: stomach, glandular, lesion: one or several types, types not named, dosed 52 weeks, study length 78 weeks) negative

CCCCCCCCCCCCCCCC(=O)CC(=O)CCCCCCCCCCCCCCC
inactive: carcinogen call (rat, strain F344/DuCrj, females, in feed, site: colon, lesion: one or several types, types not named, dosed 54 weeks, study length 54 weeks) negative | carcinogen call (rat, strain F344/DuCrj, females, in feed, site: mammary gland, lesion: one or several types, types not named, dosed 54 weeks, study length 54 weeks) negative

Source: PubChem BioAssay AID1745844 (Carcinogenic Potency Database (CPDB), 2022)
